These results are taken from ChEMBL document CHEMBL1201862, “PubChem BioAssay data set” (2004).

Test systems include RXF 393; UO-31; LOX IMVI; K562; HL-60; HCC 2998; NCI-H23; M14; SF-295; HOP-92; SN12C; CCRF-CEM; NCI-H460; UACC-257; IGROV-1; SNB-75; OVCAR-3; SNB-19; NCI-H226; EKVX.
Common to all, as to assay: growth of human tumour cells (NCI), 48 h

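Results reflect a 48-hour exposure of cells in 96-well plates to compound at five concentrations. GI50: concentration for 50% inhibition of growth.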 Calls of active or inactive are those of the source. No stated cut-off is given here; in the data, active = GI50 up to about 1.1 µM and inactive = higher.

On to `O=C(SCc1cccc2ccccc12)c1ccc(Cl)cc1`, for which the GI50 in the experiment with RXF 393 is > 100 µM (inactive); in the experiment on UO-31, > 100 µM (inactive); with LOX IMVI, > 100 µM (inactive); in the experiment with K562 it was 48.4 µM (inactive); in the experiment with HL-60 it was 48.5 µM (inactive); in the experiment on HCC 2998, > 100 µM (inactive). Further, the GI50 in the experiment with NCI-H23 is 95.3 µM (inactive); with M14 it was > 100 µM (inactive); in the experiment on SF-295 it was > 100 µM (inactive); in the experiment with HOP-92 it was 18.8 µM (inactive); in the experiment with SN12C it was > 100 µM (inactive); with CCRF-CEM, > 100 µM (inactive). In addition, the GI50 with NCI-H460 was 49 µM (inactive); in the experiment with UACC-257, 76.7 µM (inactive); in the experiment on IGROV-1, > 100 µM (inactive); in the experiment on SNB-75 it was > 100 µM (inactive); with OVCAR-3, 44.4 µM (inactive); in the experiment on SNB-19, > 100 µM (inactive). Also, the GI50 in the experiment with NCI-H226 is > 100 µM (inactive); in the experiment on EKVX, 80 µM (inactive).
As for `COC(=O)[C@H](Cc1ccccc1)NP(=O)(O)OCC1OC(n2cc(C)c(=O)[nH]c2=O)CC1N=[N+]=[N-]` (stereo not given in full), the GI50 in the experiment on RXF 393, with UO-31, in the experiment on LOX IMVI, with K562, in the experiment with HL-60 and with HCC 2998 was > 100 µM (inactive) in each case. Further, the GI50 in the experiment with NCI-H23, in the experiment with M14, in the experiment with SF-295, with HOP-92, with SN12C and in the experiment with CCRF-CEM was > 100 µM (inactive) throughout. In addition, the GI50 in the experiment on NCI-H460, in the experiment with UACC-257, in the experiment on IGROV-1, with SNB-75, with OVCAR-3 and in the experiment on SNB-19 was > 100 µM (inactive) each time. The GI50 in the experiment on NCI-H226 and with EKVX was > 100 µM (inactive) each time.
Take `O=S(=O)(N1CCCCN(S(=O)(=O)C(F)(F)F)CCCN(S(=O)(=O)C(F)(F)F)CCCCN(S(=O)(=O)C(F)(F)F)CCCN(S(=O)(=O)C(F)(F)F)CCCCN(S(=O)(=O)C(F)(F)F)CCCN(S(=O)(=O)C(F)(F)F)CCCCN(S(=O)(=O)C(F)(F)F)CCC1)C(F)(F)F`: the GI50 in the experiment on RXF 393, in the experiment on UO-31, in the experiment on LOX IMVI, with K562, in the experiment with HL-60 and in the experiment with HCC 2998 was > 31.6 µM (inactive) each time. Further, the GI50 with NCI-H23 was > 31.6 µM (inactive); in the experiment with M14, > 31.6 µM (inactive); in the experiment with SF-295, > 31.6 µM (inactive); with HOP-92 it was 11.1 µM (inactive); in the experiment with SN12C it was > 31.6 µM (inactive); in the experiment on CCRF-CEM, > 31.6 µM (inactive). Also, the GI50 in the experiment on NCI-H460, with UACC-257, with IGROV-1, in the experiment with SNB-75, in the experiment on OVCAR-3 and in the experiment with SNB-19 was > 31.6 µM (inactive) each time. Also, the GI50 in the experiment on NCI-H226 and with EKVX was > 31.6 µM (inactive) in each case.
On to `CC1(Br)Cc2ccccc2C1=O` (stereo not given), for which the GI50 in the experiment with RXF 393 was > 10 µM (inactive); in the experiment with UO-31, 6.95 µM (inactive); with LOX IMVI, 3.09 µM (inactive); with K562, 3.33 µM (inactive); in the experiment with HL-60, 2.79 µM (inactive); in the experiment on HCC 2998 it was > 100 µM (inactive). The GI50 in the experiment on NCI-H23 was 5.41 µM (inactive); with M14, 3.09 µM (inactive); with SF-295, 18.7 µM (inactive); with HOP-92, 6.49 µM (inactive); with SN12C, 7.59 µM (inactive); in the experiment with CCRF-CEM, 1.75 µM (inactive). Besides, the GI50 is > 10 µM (inactive) with NCI-H460; 9.53 µM (inactive) in the experiment on UACC-257; 4.12 µM (inactive) with IGROV-1; 13 µM (inactive) with SNB-75; 8.99 µM (inactive) in the experiment with OVCAR-3; 33.3 µM (inactive) in the experiment with SNB-19. Besides, the GI50 in the experiment with NCI-H226 is 2.34 µM (inactive); in the experiment with EKVX it was 3.27 µM (inactive).
In the case of `CC(=O)/C(=N\O)C(=O)Nc1ccc(Cl)cc1Cl`, the GI50 in the experiment with RXF 393, in the experiment with UO-31, in the experiment with LOX IMVI, in the experiment on K562, in the experiment on HL-60 and in the experiment with HCC 2998 was > 100 µM (inactive) each time. The GI50 in the experiment on NCI-H23 was > 100 µM (inactive); in the experiment with M14, > 100 µM (inactive); in the experiment with SF-295 it was > 100 µM (inactive); in the experiment with HOP-92, > 100 µM (inactive); in the experiment on SN12C it was > 100 µM (inactive); in the experiment on CCRF-CEM, 19.1 µM (inactive). Besides, the GI50 in the experiment on NCI-H460, in the experiment on UACC-257, in the experiment with IGROV-1, in the experiment with SNB-75, in the experiment with OVCAR-3 and in the experiment on SNB-19 was > 100 µM (inactive) in each case. In addition, the GI50 in the experiment with NCI-H226 and in the experiment on EKVX was > 100 µM (inactive) each time.
`C/C(=N/NC(=S)Nc1cccc(Cl)c1)c1ccccn1`: the GI50 in the experiment with RXF 393 is 1.52 µM (inactive); in the experiment on UO-31, 0.269 µM (active); in the experiment with LOX IMVI it was 0.125 µM (active); with K562, 0.0324 µM (active); in the experiment on HL-60, < 0.0141 µM (active); in the experiment on HCC 2998, 1.82 µM (inactive). Also, the GI50 in the experiment on NCI-H23 is 0.463 µM (active); with M14, 0.242 µM (active); with SF-295, 0.366 µM (active); with HOP-92, 1.18 µM (inactive); in the experiment with SN12C it was 0.255 µM (active); with CCRF-CEM, < 0.0174 µM (active). Besides, the GI50 in the experiment with NCI-H460 is 0.357 µM (active); in the experiment on UACC-257, < 0.0208 µM (active); with IGROV-1, 0.0395 µM (active); in the experiment on SNB-75 it was 2.95 µM (inactive); in the experiment on OVCAR-3 it was 0.0365 µM (active); in the experiment with SNB-19 it was 2.5 µM (inactive). In addition, the figures for the GI50 in the experiment with NCI-H226 and in the experiment on EKVX were 0.213 µM (active) and 0.0977 µM (active), respectively.
As for `CCCCCCCCCCC(=O)CCCCCCC(=O)O`, the GI50 was 36.3 µM (inactive) in the experiment on RXF 393; 23.7 µM (inactive) with UO-31; 15.7 µM (inactive) in the experiment with LOX IMVI; 7.33 µM (inactive) with K562; 4.23 µM (inactive) in the experiment with HL-60; 17.1 µM (inactive) with HCC 2998. Moreover, the GI50 in the experiment with NCI-H23 is 30.1 µM (inactive); with M14, 20.5 µM (inactive); in the experiment on SF-295, 21.5 µM (inactive); in the experiment with HOP-92 it was 16.9 µM (inactive); in the experiment on SN12C it was 27.3 µM (inactive); in the experiment with CCRF-CEM, 19.5 µM (inactive). Also, the GI50 is 16.5 µM (inactive) in the experiment on NCI-H460; 82.6 µM (inactive) with UACC-257; 19.2 µM (inactive) in the experiment with IGROV-1; 29.6 µM (inactive) with SNB-75; 18.2 µM (inactive) with OVCAR-3; 42.1 µM (inactive) in the experiment with SNB-19. The GI50 is 32.8 µM (inactive) with NCI-H226 and 31.8 µM (inactive) in the experiment on EKVX.
On to `COc1cc([C@@H]2c3cc4c(cc3[C@@H](NC(=O)c3ccc(OC(C)=O)cc3)C3COC(=O)[C@@H]32)OCO4)cc(OC)c1O` (stereo not given in full), for which the GI50 with RXF 393 is 11.4 µM (inactive); with UO-31, 14.3 µM (inactive); in the experiment on LOX IMVI it was 1.39 µM (inactive); in the experiment with K562 it was 2.17 µM (inactive); with HL-60 it was 0.153 µM (active); in the experiment on HCC 2998 it was 3.27 µM (inactive). Besides, the GI50 in the experiment on NCI-H23 was 0.9 µM (active); with M14 it was 2.56 µM (inactive); in the experiment on SF-295, 2.24 µM (inactive); in the experiment with HOP-92, 1.34 µM (inactive); with SN12C it was 1 µM (active); with CCRF-CEM, 0.213 µM (active). In addition, the GI50 is 0.03 µM (active) with NCI-H460; 8.32 µM (inactive) in the experiment with UACC-257; 0.258 µM (active) with IGROV-1; 1.48 µM (inactive) in the experiment with SNB-75; 4.84 µM (inactive) in the experiment on OVCAR-3; 2.16 µM (inactive) in the experiment on SNB-19. In addition, the GI50 in the experiment on NCI-H226 is 0.798 µM (active); in the experiment with EKVX, 4.18 µM (inactive).
With `COc1cc2cc3c4cc(OC)c(OC)cc4cc[n+]3c(C)c2cc1OC.O=C([O-])CS(=O)(=O)O`, the GI50 in the experiment on RXF 393 was > 100 µM (inactive); with UO-31, > 100 µM (inactive); in the experiment with LOX IMVI, > 100 µM (inactive); with K562, 61.1 µM (inactive); in the experiment on HL-60, 24.2 µM (inactive); in the experiment on HCC 2998, > 100 µM (inactive). Besides, the GI50 in the experiment with NCI-H23 was 7.87 µM (inactive); in the experiment with M14, > 100 µM (inactive); in the experiment on SF-295 it was > 100 µM (inactive); in the experiment with HOP-92 it was > 100 µM (inactive); in the experiment with SN12C it was 3.27 µM (inactive); in the experiment on CCRF-CEM, 33.2 µM (inactive). For the same molecule, the GI50 in the experiment on NCI-H460 is > 100 µM (inactive); in the experiment with UACC-257, 39.7 µM (inactive); in the experiment with IGROV-1 it was 80.9 µM (inactive); with SNB-75 it was 12.3 µM (inactive); with OVCAR-3, 78.9 µM (inactive); in the experiment with SNB-19 it was 17.7 µM (inactive). Moreover, the GI50 in the experiment on NCI-H226 was 10.8 µM (inactive); in the experiment with EKVX, > 100 µM (inactive).
For `CCOC(=O)c1[nH]c(Br)c(-c2ccc(Br)cc2)c1Br`, the GI50 is 1.23 µM (inactive) in the experiment with RXF 393; 1.32 µM (inactive) in the experiment with UO-31; 0.446 µM (active) with LOX IMVI; 0.851 µM (active) in the experiment on K562; 2.09 µM (inactive) in the experiment with HL-60; 5.79 µM (inactive) in the experiment on HCC 2998. Moreover, the GI50 in the experiment on NCI-H23 was 2.14 µM (inactive); with M14 it was 0.386 µM (active); in the experiment with SF-295, 0.263 µM (active); in the experiment with HOP-92, 1.14 µM (inactive); with SN12C, 0.45 µM (active); with CCRF-CEM it was 8.15 µM (inactive). Besides, the GI50 in the experiment on NCI-H460 is 5.25 µM (inactive); with UACC-257 it was 0.671 µM (active); with IGROV-1, 0.601 µM (active); with SNB-75, 0.327 µM (active); with OVCAR-3 it was 0.237 µM (active); with SNB-19 it was 1.3 µM (inactive). The GI50 was 1.31 µM (inactive) with NCI-H226 and 7.18 µM (inactive) in the experiment on EKVX.
